In US12691070B2, “Cationic lipids and preparation method thereof” (RiboX Therapeutics HK Limited, priority 2023, dated 2026):

Tests used:
BALB/C mice [1] = assay: Local tolerance determination by footpad injection; type: in vivo; conditions: cirRNA (SEQ ID NO: 1) LNP, 0.175 mg*kg-1 subcutaneous into the footpad, 24 hours post minus prior
Protocol: 6-8 week old, female BALB/C mice were injected with 0.175 mg*kg-1 RNA LNPs by subcutaneous injection into the footpad. Prior to, and 24 hours post injections, injected footpad thickness was determined by a caliper.

[2] = tested on: Aspartate Aminotransferase (AST); assay: Liver enzyme elevation in serum, AST; type: in vivo; conditions: cirRNA (SEQ ID NO: 1) LNPs, BALB/C mice, intravenous 0.5 MPK
Protocol: (§1) 6-8 week old, female BALB/C mice were injected with 0.5 mg*kg-1 of RNA LNPs by intravenous injection. At 2 and 24 hours post injection, animals were bled and sera concentrations of Alanine Aminotransferase (ALT) and Aspartate Aminotransferase (AST) were determined by a blood chemistry analyzer.

RAW 264.7 cells [3] = assay: In vitro toxicity (CellTiter-Glo cell viability), RAW 264.7; type: cell-based;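 note: percent of untreated cells luminescence signal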
In short: (§2)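 RNA-LNPs 1 μg/mL; 72 h post-transfection; CellTiter-Glo luminescence read-out; % viability calculated from signal.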

[4] = LNP zeta potential (Zetasizer); type: physicochemical
In short: (§3)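 Ribogreen fluorescence with and without Triton X-100 gave encapsulation as 100% − (intact/lysed) signal; DLS size, PDI and zeta potential measured on a Zetasizer. Particles: 50:10:38.5:1.5 lipid mix, luciferase circRNA or mRNA, lipid:nucleotide 15 or 6, microfluidic assembly at pH 4.5, PBS-dialyzed.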

[5] = RNA encapsulation efficacy by Quant-IT Ribogreen kit; type: physicochemical; conditions: for Encapsulation Efficiency %: LNP with cirRNA (SEQ ID NO: 1); for Encapsulation Efficiency: LNP with mRNA (SEQ ID NO: 2)
In short: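 LNPs of ionizable lipid/DSPC/cholesterol/DMG-PEG 2000 (50:10:38.5:1.5) made by microfluidic mixing of luciferase circRNA or mRNA in pH 4.5 acetate with lipids in ethanol (3:1, 12 ml/min), ionizable lipid:nucleotide 15 or 6, then dialyzed against PBS. Size, PDI (DLS) and zeta potential on Zetasizer; encapsulation by Ribogreen ± Triton X-100.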

Hep G2 cells [6] = assay: In vitro toxicity (CellTiter-Glo cell viability), Hep G2; type: cell-based;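 note: percent of untreated cells luminescence signal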
In short: as §2

Hep G2 cells [7] = assay: In vitro expression of firefly-luciferase, Hep G2; type: cell-based
In short: (§4)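 Cells were transfected with firefly-luciferase-encoding RNA-LNPs at 100 ng/mL. After 72 hours they were washed and lysed, and luciferase activity in the lysates was read by luminometry.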

[8] = tested on: Alanine Aminotransferase (ALT); assay: Liver enzyme elevation in serum, ALT; type: in vivo; conditions: cirRNA (SEQ ID NO: 1) LNPs, BALB/C mice, intravenous 0.5 MPK
Protocol: as §1

RAW 264.7 cells [9] = assay: In vitro expression of firefly-luciferase, RAW 264.7; type: cell-based
In short: as §4

BALB/C mice [10] = assay: In vivo expression, whole-body luminescence (IVIS)
Protocol: 6-8 week old, female BALB/C mice were injected with 0.05 mg*kg-1 of RNA-LNPs encoding for firefly-luciferase by intravenous injection. At 6 hours post injection, animals were intraperitoneally injected with 15 mg/ml of Luciferin substrate and whole-body luminescence was determined by a bioluminescent in vivo imaging system (IVIS).

MCP-I = MCP-I cytokine elevation in serum; type: in vivo; conditions: cirRNA (SEQ ID NO: 1) LNPs, mice
Protocol: 6-8 week old, female BALB/C mice were injected with 0.5 mg*kg-1 of RNA LNPs by intravenous injection. At 2 and 24 hours post injection, animals were bled and sera concentrations of MCP-I were determined by an immunoassay (Luminex).

[11] = LNP size and polydispersity index (PDI) by dynamic light scattering; type: physicochemical; conditions: for Size: in nm (unit assumed)
In short: as §3

[12] = cirRNA (SEQ ID NO: 1) LNPs, RAW 264.7 cells
[13] = mRNA (SEQ ID NO: 2) LNP, 1 μg/mL, 72 hours post transfection
[14] = cirRNA (SEQ ID NO: 1) LNPs, Hep G2 cells
[15] = cirRNA (SEQ ID NO: 1) LNPs, firefly-luciferase luminescence, Hep G2 cells
[16] = mRNA (SEQ ID NO: 2) LNP, 100 ng/mL, 72 hours post transfection, luciferase activity
[17] = cirRNA (SEQ ID NO: 1) LNPs, firefly-luciferase luminescence, RAW 264.7 cells
[18] = cirRNA (SEQ ID NO: 1) LNPs, BALB/C mice
[19] = mRNA (SEQ ID NO: 2) LNP, 0.05 mg*kg-1 intravenous, 6 hours post injection

SMILES | Zeta (mV) ([4]; LNP with cirRNA (SEQ ID NO: 1)) | Zeta (mV) ([4]; LNP with mRNA (SEQ ID NO: 2)) | Encapsulation Efficiency % [5] [%] | Encapsulation Efficiency [5] [%] | MCP-I in Sera 2 hours After 0.5 MPK Injection (MCP-I) [pg/mL] | Footpad Thickness (24 h−0 h, mm) (BALB/C mice [1]) [mm] | AST in Sera (IU/L) 2 hours After 0.5 MPK Injection [2] [IU/L] | AST in Sera (IU/L) 24 hours After 0.5 MPK Injection [2] [IU/L] | In vitro Viability RAW (RAW 264.7 cells [3]; [12]) [%] | In vitro Viability RAW (RAW 264.7 cells [3]; [13]) [%] | In vitro Viability HepG2 (Hep G2 cells [6]; [14]) [%] | In vitro Viability HepG2 (Hep G2 cells [6]; [13]) [%] | In vitro Expression HepG2 (Hep G2 cells [7]; [15]) | In vitro Expression HepG2 (Hep G2 cells [7]; [16]) | ALT in Sera (IU/L) 2 hours After 0.5 MPK Injection [8] [IU/L] | ALT in Sera (IU/L) 24 hours After 0.5 MPK Injection [8] [IU/L] | In vitro Expression RAW (RAW 264.7 cells [9]; [17]) | In vitro Expression RAW (RAW 264.7 cells [9]; [16]) | In vivo Expression (Whole Body) (BALB/C mice [10]; [18]) | In vivo Expression (Whole Body) (BALB/C mice [10]; [19]) | other results
CCCCCCCCC(CCCCCCCC)OC(=O)CCCCCCCN(CCCCCCCCOC(=O)C(CCCCCC)CCCCCCCC)CCCOC(=O)NCCN1CCCCC1 (stereo not drawn) [Lipid 351] | −0.1951 | −4.142 | 95 | 66.39 | 3172.67 | 0.68 | 232.67 | 389.33 | 98 | 94 | 96 | 87 | 1.87E+06 | 1.00E+07 | 74.33 | 149.33 | 6.44E+05 | 3.41E+06 | 1.35E+08 | 1.71E+08 | MCP-I in Sera 24 hours After 0.5 MPK Injection (MCP-I): 1133.74 pg/mL; PDI ([11]; LNP with cirRNA (SEQ ID NO: 1)): 0.1705; Size ([11]; LNP with cirRNA (SEQ ID NO: 1)): 99.16; PDI ([11]; LNP with mRNA (SEQ ID NO: 2)): 0.3512; Size ([11]; LNP with mRNA (SEQ ID NO: 2)): 178.8
CCCCCCCCC(CCCCCCCC)OC(=O)CCCCCCCN(CCCCCCCCOC(=O)C(CCCCCC)CCCCCCCC)CCCOC(=O)NCCN1CCCCCC1 (stereo not drawn) [Lipid 354] | −2.263 | −0.3781 | 96 | 71.30 | 5469.33 | 0.80 | 287.33 | 411.00 | 45 | 65 | 119 | 104 | 1.63E+06 | 7.47E+06 | 97.67 | 192.50 | 4.53E+05 | 1.10E+06 | 6.08E+08 | 7.55E+08 | MCP-I in Sera 24 hours After 0.5 MPK Injection (MCP-I): 1348.89 pg/mL; PDI ([11]; LNP with cirRNA (SEQ ID NO: 1)): 0.1505; Size ([11]; LNP with cirRNA (SEQ ID NO: 1)): 98.03; PDI ([11]; LNP with mRNA (SEQ ID NO: 2)): 0.2144; Size ([11]; LNP with mRNA (SEQ ID NO: 2)): 128.6
CCCCCCCCCCC(CCCCCCCC)COC(=O)CCCCCN(CCCCCC(=O)OCC(CCCCCCCC)CCCCCCCCCC)CCCOC(=O)NCCN1CCCC1 (stereo not drawn) [Lipid 369] | 4.427 | 10 | 97 | 92.99 | 6463.00 | 0.57 | 364.00 | 290.00 | 61 | 90 | 78 | 94 | 1.04E+06 | 7.28E+07 | 158.00 | 121.00 | 1.84E+05 | 2.18E+07 | 1.30E+07 | 6.54E+08 | MCP-I in Sera 24 hours After 0.5 MPK Injection (MCP-I): 1338.00 pg/mL; PDI ([11]; LNP with cirRNA (SEQ ID NO: 1)): 0.1084; Size ([11]; LNP with cirRNA (SEQ ID NO: 1)): 93.14; PDI ([11]; LNP with mRNA (SEQ ID NO: 2)): 0.1166; Size ([11]; LNP with mRNA (SEQ ID NO: 2)): 120.9

Further lines, with some results ahead:

Zeta (mV) ([4]; LNP with cirRNA (SEQ ID NO: 1)) | Zeta (mV) ([4]; LNP with mRNA (SEQ ID NO: 2)) | Encapsulation Efficiency % [5] [%] | Encapsulation Efficiency [5] [%] | MCP-I in Sera 2 hours After 0.5 MPK Injection (MCP-I) [pg/mL] | SMILES | Footpad Thickness (24 h−0 h, mm) (BALB/C mice [1]) [mm] | AST in Sera (IU/L) 2 hours After 0.5 MPK Injection [2] [IU/L] | AST in Sera (IU/L) 24 hours After 0.5 MPK Injection [2] [IU/L] | In vitro Viability RAW (RAW 264.7 cells [3]; [12]) [%] | In vitro Viability RAW (RAW 264.7 cells [3]; [13]) [%] | In vitro Viability HepG2 (Hep G2 cells [6]; [14]) [%] | In vitro Viability HepG2 (Hep G2 cells [6]; [13]) [%] | In vitro Expression HepG2 (Hep G2 cells [7]; [15]) | In vitro Expression HepG2 (Hep G2 cells [7]; [16]) | ALT in Sera (IU/L) 2 hours After 0.5 MPK Injection [8] [IU/L] | ALT in Sera (IU/L) 24 hours After 0.5 MPK Injection [8] [IU/L] | In vitro Expression RAW (RAW 264.7 cells [9]; [17]) | In vitro Expression RAW (RAW 264.7 cells [9]; [16]) | In vivo Expression (Whole Body) (BALB/C mice [10]; [18]) | In vivo Expression (Whole Body) (BALB/C mice [10]; [19]) | other results
2.343 | 1.967 | 97 | 93.45 | 7150.00 | CCCCCCCCC(CCCCCCCC)OC(=O)CCCCCCCN(CCCCCCCCOC(=O)C(CCCCCC)CCCCCCCC)CCCOC(=O)NCCN(C)C (stereo not drawn) [Lipid 344] | 0.53 | 333.67 | 340.00 | 94 | 88 | 96 | 78 | 1.08E+07 | 8.78E+07 | 161.67 | 204.33 | 1.97E+06 | 1.59E+07 | 7.43E+07 | 2.15E+09 | MCP-I in Sera 24 hours After 0.5 MPK Injection (MCP-I): 946.87 pg/mL; PDI ([11]; LNP with cirRNA (SEQ ID NO: 1)): 0.1332; Size ([11]; LNP with cirRNA (SEQ ID NO: 1)): 98.08; PDI ([11]; LNP with mRNA (SEQ ID NO: 2)): 0.1063; Size ([11]; LNP with mRNA (SEQ ID NO: 2)): 97.82
1.734 | 8.774 | 98 | 83.15 | 1894.33 | CCCCCCCCC(CCCCCCCC)OC(=O)CCCCCCCN(CCCCCCCCOC(=O)C(CCCCCC)CCCCCCCC)CCCOC(=O)NCCCN(C)C (stereo not drawn) [Lipid 348] | 0.78 | 307.00 | 148.00 | 73 | 77 | 65 | 60 | 1.59E+06 | 1.45E+07 | 82.33 | 96.33 | 2.47E+05 | 2.52E+03 | 6.47E+07 | 1.87E+07 | MCP-I in Sera 24 hours After 0.5 MPK Injection (MCP-I): 128.60 pg/mL; PDI ([11]; LNP with cirRNA (SEQ ID NO: 1)): 0.2546; Size ([11]; LNP with cirRNA (SEQ ID NO: 1)): 100.8; PDI ([11]; LNP with mRNA (SEQ ID NO: 2)): 0.1488; Size ([11]; LNP with mRNA (SEQ ID NO: 2)): 101.8
6.91 | 0.9211 | 97 | 83.19 | 6084.33 | CCCCCCCCC(CCCCCCCC)OC(=O)CCCCCCCN(CCCCCCCCOC(=O)C(CCCCCC)CCCCCCCC)CCCOC(=O)NCCN1CCCC1 (stereo not drawn) [Lipid 350] | 0.55 | 368.00 | 362.67 | 74 | 86 | 95 | 111 | 1.43E+07 | 4.34E+07 | 105.67 | 121.33 | 3.38E+06 | 5.78E+06 | 1.03E+08 | 5.29E+08 | MCP-I in Sera 24 hours After 0.5 MPK Injection (MCP-I): 2039.50 pg/mL; PDI ([11]; LNP with cirRNA (SEQ ID NO: 1)): 0.1717; Size ([11]; LNP with cirRNA (SEQ ID NO: 1)): 112.8; PDI ([11]; LNP with mRNA (SEQ ID NO: 2)): 0.1151; Size ([11]; LNP with mRNA (SEQ ID NO: 2)): 105.3
